Data reported in ChEMBL document CHEMBL3132778, “Structureactivity relationships of tetrahydrocarbazole derivatives as antifungal lead compounds” (Medchemcomm, 2013).
≈ marks a conversion by molar mass, not a printed value.

Key:
Nannizzia gypsea = experiment: Antifungal activity against Microsporum gypseum by serial dilution method; assay type: functional
Candida tropicalis = experiment: Antifungal activity against Candida tropicalis after 24 hrs by serial dilution method; assay type: functional
Trichophyton rubrum = experiment: Antifungal activity against Trichophyton rubrum by serial dilution method; assay type: functional
Candida parapsilosis = experiment: Antifungal activity against Candida parapsilosis after 24 hrs by serial dilution method; assay type: functional; details: Lodderomyces parapsilosis
Aspergillus fumigatus = experiment: Antifungal activity against Aspergillus fumigatus after 7 days by serial dilution method; assay type: functional; details: 168 h
Candida albicans = experiment: Antifungal activity against Candida albicans after 24 hrs by serial dilution method; assay type: functional
Kluyveromyces marxianus = experiment: Antifungal activity against Candida kefyr after 24 hrs by serial dilution method; assay type: functional
[1] = Inhibition of Saccharomyces cerevisiae NMT
Cryptococcus neoformans = experiment: Antifungal activity against Cryptococcus neoformans after 72 hrs by serial dilution method; assay type: functional

| SMILES | MIC80 (Nannizzia gypsea) [µg/mL] | MIC80 (Candida tropicalis) [µg/mL] | MIC80 (Trichophyton rubrum) [µg/mL] | MIC80 (Candida parapsilosis) [µg/mL] | MIC80 (Aspergillus fumigatus) [µg/mL] | MIC80 (Candida albicans) [µg/mL] | MIC80 (Kluyveromyces marxianus) [µg/mL] | IC50 [1] [nM] | MIC80 (Cryptococcus neoformans) [µg/mL] |
| --- | --- | --- | --- | --- | --- | --- | --- | --- | --- |
| Cc1ccc2c(c1)c1c(n2C[C@@H](O)CNC2CCCCC2)CCCC1 | 16 (≈ 47 µM) | 64 (≈ 188 µM) | 16 (≈ 47 µM) | 16 (≈ 47 µM) | 64 (≈ 188 µM) | 64 (≈ 188 µM) | 64 (≈ 188 µM) | 24 | 16 (≈ 47 µM) |
| Cc1ccc2c(c1)c1c(n2CCCNCc2ccccc2F)CCCC1 | – | 32 (≈ 91.3 µM) | 64 (≈ 183 µM) | > 64 | 16 (≈ 45.7 µM) | > 64 | 16 (≈ 45.7 µM) | – | > 64 |
| Cc1ccc2c(c1)c1c(n2CC(O)CNc2ccccc2)CCCC1 (stereo unspecified) | 1 (≈ 2.99 µM) | – | – | – | > 64 | > 64 | – | – | > 64 |
| Cc1ccc2c(c1)c1c(n2CC(O)CNCc2ccccc2)CCCC1 (stereo unspecified) | 16 (≈ 45.9 µM) | 64 (≈ 184 µM) | 16 (≈ 45.9 µM) | 64 (≈ 184 µM) | 64 (≈ 184 µM) | 16 (≈ 45.9 µM) | 64 (≈ 184 µM) | – | 4 (≈ 11.5 µM) |
| Cc1ccc2c(c1)c1c(n2CC(O)CNCc2cccnc2)CCCC1 (stereo unspecified) | 16 (≈ 45.8 µM) | – | – | – | 64 (≈ 183 µM) | > 64 | – | – | 64 (≈ 183 µM) |
| Cc1ccc2c(c1)c1c(n2CCCNC2CCCCC2)CCCC1 | 4 (≈ 12.3 µM) | – | – | – | > 64 | > 64 | – | – | > 64 |
| Cc1ccc2c(c1)c1c(n2CCCNc2ccccc2)CCCC1 | 0.0625 (≈ 0.196 µM) | 16 (≈ 50.2 µM) | 16 (≈ 50.2 µM) | 16 (≈ 50.2 µM) | 16 (≈ 50.2 µM) | 64 (≈ 201 µM) | 16 (≈ 50.2 µM) | – | 16 (≈ 50.2 µM) |
| Cc1ccc2c(c1)c1c(n2CCCNCc2ccccc2)CCCC1 | 0.0156 (≈ 0.0469 µM) | 32 (≈ 96.2 µM) | 4 (≈ 12 µM) | 16 (≈ 48.1 µM) | 32 (≈ 96.2 µM) | 16 (≈ 48.1 µM) | 32 (≈ 96.2 µM) | – | 1 (≈ 3.01 µM) |
| Cc1ccc2c(c1)c1c(n2CCCNCc2cccnc2)CCCC1 | 0.0625 (≈ 0.187 µM) | 16 (≈ 48 µM) | 4 (≈ 12 µM) | 64 (≈ 192 µM) | 64 (≈ 192 µM) | 64 (≈ 192 µM) | 16 (≈ 48 µM) | – | 64 (≈ 192 µM) |
| Cc1ccc2c(c1)c1c(n2CCCNCc2ccc(F)cc2)CCCC1 | – | 8 (≈ 22.8 µM) | 8 (≈ 22.8 µM) | 32 (≈ 91.3 µM) | 32 (≈ 91.3 µM) | 64 (≈ 183 µM) | 16 (≈ 45.7 µM) | – | 8 (≈ 22.8 µM) |
| Cc1ccc2c(c1)c1c(n2CCCNCc2cccc(F)c2)CCCC1 | – | > 64 | 64 (≈ 183 µM) | 64 (≈ 183 µM) | > 64 | > 64 | > 64 | – | 64 (≈ 183 µM) |
| Cc1ccc2c(c1)c1c(n2CCCNCc2ccc(Cl)cc2)CCCC1 | – | 64 (≈ 174 µM) | > 64 | 32 (≈ 87.2 µM) | 16 (≈ 43.6 µM) | > 64 | 16 (≈ 43.6 µM) | – | > 64 |
| Cc1ccc2c(c1)c1c(n2CCCNCc2ccccc2Cl)CCCC1 | – | > 64 | > 64 | > 64 | > 64 | > 64 | > 64 | – | > 64 |
| Cc1ccc2c(c1)c1c(n2CCCNCc2cccc(Cl)c2)CCCC1 | – | > 64 | > 64 | > 64 | > 64 | > 64 | 64 (≈ 174 µM) | – | 32 (≈ 87.2 µM) |
| Cc1ccc(CNCCCn2c3c(c4cc(C)ccc42)CCCC3)cc1 | – | 16 (≈ 46.2 µM) | 8 (≈ 23.1 µM) | 32 (≈ 92.3 µM) | 32 (≈ 92.3 µM) | 32 (≈ 92.3 µM) | 16 (≈ 46.2 µM) | – | 8 (≈ 23.1 µM) |
| COc1ccc(CNCCCn2c3c(c4cc(C)ccc42)CCCC3)cc1 | – | 8 (≈ 22.1 µM) | 8 (≈ 22.1 µM) | 16 (≈ 44.1 µM) | 16 (≈ 44.1 µM) | 32 (≈ 88.3 µM) | 16 (≈ 44.1 µM) | – | 16 (≈ 44.1 µM) |
| Cc1ccc2c(c1)c1c(n2CCCNCc2ccc(Cl)cc2Cl)CCCC1 | – | > 64 | > 64 | > 64 | > 64 | > 64 | > 64 | – | > 64 |

| SMILES | MIC80 (Nannizzia gypsea) [µg/mL] | MIC80 (Candida tropicalis) [µg/mL] | MIC80 (Trichophyton rubrum) [µg/mL] | MIC80 (Candida parapsilosis) [µg/mL] | MIC80 (Aspergillus fumigatus) [µg/mL] | MIC80 (Candida albicans) [µg/mL] | MIC80 (Kluyveromyces marxianus) [µg/mL] | IC50 [1] [nM] | MIC80 (Cryptococcus neoformans) [µg/mL] |
| --- | --- | --- | --- | --- | --- | --- | --- | --- | --- |
| CCOC(=O)c1ccc2c(c1)c1c(n2CCCNCc2ccccc2)CCCC1 | – | > 64 | – | > 64 | > 64 | > 64 | > 64 | – | > 64 |
| OCc1ccc2c(c1)c1c(n2CCCNCc2ccccc2)CCCC1 | – | > 64 | – | > 64 | > 64 | > 64 | > 64 | – | > 64 |
| O=C(OCc1ccc2c(c1)c1c(n2CCCNCc2ccccc2)CCCC1)c1ccccc1 | – | > 64 | – | > 64 | > 64 | > 64 | > 64 | – | > 64 |
| c1ccc(CNCCCn2c3c(c4cc(CNc5ccccc5)ccc42)CCCC3)cc1 | – | > 64 | – | > 64 | > 64 | 32 (≈ 75.5 µM) | > 64 | – | > 64 |
| O=C(Oc1ccccc1)c1ccc2c(c1)c1c(n2CCCNCc2ccccc2)CCCC1 | – | > 64 | – | > 64 | 64 (≈ 146 µM) | 64 (≈ 146 µM) | > 64 | – | > 64 |
| O=C(OC1CCNCC1)c1ccc2c(c1)c1c(n2CCCNCc2ccccc2)CCCC1 | – | 8 (≈ 18 µM) | – | 32 (≈ 71.8 µM) | > 64 | 32 (≈ 71.8 µM) | 64 (≈ 144 µM) | – | 32 (≈ 71.8 µM) |
| CN1CCC(OC(=O)c2ccc3c(c2)c2c(n3CCCNCc3ccccc3)CCCC2)CC1 | – | 32 (≈ 69.6 µM) | – | 64 (≈ 139 µM) | 32 (≈ 69.6 µM) | 32 (≈ 69.6 µM) | 32 (≈ 69.6 µM) | – | 16 (≈ 34.8 µM) |
| O=C(Nc1ccccc1)c1ccc2c(c1)c1c(n2CCCNCc2ccccc2)CCCC1 | – | > 64 | – | > 64 | > 64 | 32 (≈ 73.1 µM) | > 64 | – | 64 (≈ 146 µM) |
| O=C(Nc1ccc(Br)cc1)c1ccc2c(c1)c1c(n2CCCNCc2ccccc2)CCCC1 | – | > 64 | – | > 64 | 64 (≈ 124 µM) | 32 (≈ 62 µM) | > 64 | – | 16 (≈ 31 µM) |
| O=C(NCc1ccccc1)c1ccc2c(c1)c1c(n2CCCNCc2ccccc2)CCCC1 | – | > 64 | – | > 64 | > 64 | > 64 | > 64 | – | 64 (≈ 142 µM) |
| O=C(OC1CCCCC1)c1ccc2c(c1)c1c(n2CCCNCc2ccccc2)CCCC1 | – | > 64 | – | > 64 | > 64 | 64 (≈ 144 µM) | > 64 | – | > 64 |
| O=C(c1ccc2c(c1)c1c(n2CCCNCc2ccccc2)CCCC1)c1ccccn1 | – | > 64 | – | > 64 | > 64 | 64 (≈ 151 µM) | > 64 | – | 64 (≈ 151 µM) |
| Cc1ccc(C(=O)c2ccc3c(c2)c2c(n3CCCNCc3ccccc3)CCCC2)nc1 | – | > 64 | – | > 64 | > 64 | 64 (≈ 146 µM) | > 64 | – | > 64 |
| O=C(c1ccc2c(c1)c1c(n2CCCNCc2ccccc2)CCCC1)c1nccs1 | – | > 64 | – | > 64 | > 64 | 32 (≈ 74.5 µM) | > 64 | – | > 64 |
| Cc1c(C(=O)c2ccccn2)oc2cccc(OCCCNCc3cccnc3)c12 | > 64 | 8 (≈ 19.9 µM) | 64 (≈ 159 µM) | 4 (≈ 9.96 µM) | > 64 | 4 (≈ 9.96 µM) | 4 (≈ 9.96 µM) | – | > 64 |
| OC(Cn1cncn1)(Cn1cncn1)c1ccc(F)cc1F [FLUCONAZOLE] | 1 (≈ 3.27 µM) | 2 (≈ 6.53 µM) | 1 (≈ 3.27 µM) | 4 (≈ 13.1 µM) | > 64 | 0.5 (≈ 1.63 µM) | 4 (≈ 13.1 µM) | – | 1 (≈ 3.27 µM) |
